# In patent US11571411B2, “Use of a bisamide derivative of malonic acid for treating allergic and other diseases in humans and animals” (PHARMENTERPRISES ALLERGY LLC, priority 2018, dated 2023):
# Test system: histamine-induced nasal congestion model
# Test: Histamine-induced nasal congestion model in dogs, oral administration
# Type: in vivo, Beagle dogs
# Conditions: for Volume of the nasal cavity, right nostril / Volume of the nasal cavity, left nostril: oral once 30 minutes before histamine
# Protocol: A histamine-induced nasal congestion model in dogs was performed according to the standard procedure [Tiniakov R. L., Tiniakova O. P., McLeod R. L., Hey J. A., Yeates D. B. Canine model of nasal congestion and allergic rhinitis//J Appl Physiol. 2003. V.94(5). P.1821-1828]. Beagle dogs were injected in the nasal cavity with a 5% histamine solution in a volume of 250 μl/nostril. The volume of the nasal cavity of the right and left nostrils was measured using a rhinometer before and 5, 10, 15, 20, 30, 40, 50 and 60 minutes after administration of histamine. Three experiments were performed, in which Compound I was administered orally once at different times: 1) 30 minutes before administration of histamine; 2) 1 hour before administration of histamine; and 3) 6 hours before administration of histamine, and one experiment was performed, in which Compound I was administered orally once daily for 14 days, the last administration was carried out 1 hour before administration of histamine.
# [1] = 0.005 mg/kg, 20 minutes after histamine
# [2] = 0.005 mg/kg, 30 minutes after histamine
# [3] = 0.005 mg/kg, 40 minutes after histamine
# [4] = 0.005 mg/kg, 50 minutes after histamine
# [5] = 0.005 mg/kg, 60 minutes after histamine
# [6] = 0.005 mg/kg, before histamine administration
# [7] = 0.05 mg/kg, 5 minutes after histamine
# [8] = 0.05 mg/kg, 10 minutes after histamine
# [9] = 0.05 mg/kg, 15 minutes after histamine
# [10] = 0.05 mg/kg, 20 minutes after histamine
# [11] = 0.05 mg/kg, 30 minutes after histamine
# [12] = 0.05 mg/kg, 40 minutes after histamine
# [13] = 0.05 mg/kg, 50 minutes after histamine
# [14] = 0.05 mg/kg, 60 minutes after histamine
# [15] = 0.05 mg/kg, before histamine administration
# [16] = 0.54 mg/kg, 5 minutes after histamine
# [17] = 0.54 mg/kg, 10 minutes after histamine
# [18] = 0.54 mg/kg, 15 minutes after histamine
# [19] = 0.54 mg/kg, 20 minutes after histamine
# [20] = 0.54 mg/kg, 30 minutes after histamine
# [21] = 0.54 mg/kg, 40 minutes after histamine
# [22] = 0.54 mg/kg, 50 minutes after histamine
# [23] = 0.54 mg/kg, 60 minutes after histamine
# [24] = 0.54 mg/kg, before histamine administration
smiles,measurement,setting,value
"O=C(CC(=O)NCCc1cnc[nH]1)NCCc1cnc[nH]1 [Compound I, N,N′-bis(2-(1H-imidazol-5-yl)ethyl)malonamide]","Volume of the nasal cavity, right nostril","0.005 mg/kg, 15 minutes after histamine",2.1 ± 0.2$^ cm^3
same,"Volume of the nasal cavity, left nostril",[1],1.9 ± 0.3 cm^3
same,"Volume of the nasal cavity, right nostril",[1],2.0 ± 0.2$^ cm^3
same,"Volume of the nasal cavity, left nostril",[2],2.5 ± 0.1&$ cm^3
same,"Volume of the nasal cavity, right nostril",[2],2.8 ± 0.2&$ cm^3
same,"Volume of the nasal cavity, left nostril",[3],3.9 ± 0.1& cm^3
same,"Volume of the nasal cavity, right nostril",[3],3.8 ± 0.2& cm^3
same,"Volume of the nasal cavity, left nostril",[4],3.9 ± 0.1& cm^3
same,"Volume of the nasal cavity, right nostril",[4],4.0 ± 0.2& cm^3
same,"Volume of the nasal cavity, left nostril",[5],4.0 ± 0.1 cm^3
same,"Volume of the nasal cavity, right nostril",[5],3.5 ± 0.1$ cm^3
same,"Volume of the nasal cavity, left nostril",[6],4.3 ± 0.3 cm^3
same,"Volume of the nasal cavity, right nostril",[6],4.6 ± 0.3 cm^3
same,"Volume of the nasal cavity, left nostril",[7],3.4 ± 0.1$ cm^3
same,"Volume of the nasal cavity, right nostril",[7],3.3 ± 0.2$ cm^3
same,"Volume of the nasal cavity, left nostril",[8],2.5 ± 0.1$ cm^3
same,"Volume of the nasal cavity, right nostril",[8],2.4 ± 0.2$ cm^3
same,"Volume of the nasal cavity, left nostril",[9],2.8 ± 0.1&$ cm^3
same,"Volume of the nasal cavity, right nostril",[9],2.6 ± 0.2&$ cm^3
same,"Volume of the nasal cavity, left nostril",[10],3.3 ± 0.1&$ cm^3
same,"Volume of the nasal cavity, right nostril",[10],3.3 ± 0.3&$ cm^3
same,"Volume of the nasal cavity, left nostril",[11],4.1 ± 0.1& cm^3
same,"Volume of the nasal cavity, right nostril",[11],3.8 ± 0.1& cm^3
same,"Volume of the nasal cavity, left nostril",[12],4.2 ± 0.3& cm^3
same,"Volume of the nasal cavity, right nostril",[12],4.2 ± 0.2& cm^3
same,"Volume of the nasal cavity, left nostril",[13],4.2 ± 0.1& cm^3
same,"Volume of the nasal cavity, right nostril",[13],4.5 ± 0.1& cm^3
same,"Volume of the nasal cavity, left nostril",[14],4.3 ± 0.1 cm^3
same,"Volume of the nasal cavity, right nostril",[14],4.5 ± 0.3 cm^3
same,"Volume of the nasal cavity, left nostril",[15],4.3 ± 0.2 cm^3
same,"Volume of the nasal cavity, right nostril",[15],4.2 ± 0.2 cm^3
same,"Volume of the nasal cavity, left nostril",[16],2.9 ± 0.1$ cm^3
same,"Volume of the nasal cavity, right nostril",[16],3.0 ± 0.2$ cm^3
same,"Volume of the nasal cavity, left nostril",[17],2.6 ± 0.1$ cm^3
same,"Volume of the nasal cavity, right nostril",[17],2.5 ± 0.1$ cm^3
same,"Volume of the nasal cavity, left nostril",[18],3.7 ± 0.3&$ cm^3
same,"Volume of the nasal cavity, right nostril",[18],3.8 ± 0.1&$ cm^3
same,"Volume of the nasal cavity, left nostril",[19],3.8 ± 0.2& cm^3
same,"Volume of the nasal cavity, right nostril",[19],3.7 ± 0.1&$ cm^3
same,"Volume of the nasal cavity, left nostril",[20],3.8 ± 0.1&$ cm^3
same,"Volume of the nasal cavity, right nostril",[20],3.8 ± 0.2&$ cm^3
same,"Volume of the nasal cavity, left nostril",[21],4.2 ± 0.3& cm^3
same,"Volume of the nasal cavity, right nostril",[21],4.2 ± 0.3& cm^3
same,"Volume of the nasal cavity, left nostril",[22],3.9 ± 0.2$ cm^3
same,"Volume of the nasal cavity, right nostril",[22],4.0 ± 0.3^ cm^3
same,"Volume of the nasal cavity, left nostril",[23],4.0 ± 0.1$ cm^3
same,"Volume of the nasal cavity, right nostril",[23],4.2 ± 0.3 cm^3
same,"Volume of the nasal cavity, left nostril",[24],4.5 ± 0.1 cm^3
same,"Volume of the nasal cavity, right nostril",[24],4.5 ± 0.3 cm^3
same,Tolerance,"oral once daily for 14 days, dogs",not generated
same,duration of the effect,"single oral administration, dogs",at least 6 hours
